{"source": "patent US11022605B2", "about": "(priority 2016, dated 2021)", "key": {"colon cancer": {"system": "colon cancer", "details": "cited from earlier work"}, "[1]": {"details": "in vivo; cited from earlier work"}, "[2]": {"system": "neuromuscular junction model (motoneurons synapsed onto skeletal muscle)", "format": "cell-based"}}}
{"compound": "O=c1[nH]c(=O)n(C2CCCO2)cc1F", "note": "(stereo not drawn) [Tegafur]", "values": [{"measurement": "optimal uracil to Tegafur ratio for maximizing 5-FU in the tumor relative to blood", "setting": "colon cancer", "value": "4 to 1"}]}
{"compound": "CC1(C)C(C=C(Cl)Cl)C1C(=O)OCc1cccc(Oc2ccccc2)c1", "note": "(stereo not drawn) [1R-cis-, permethrin]", "values": [{"measurement": "activity of stereoisomer", "setting": "[1]", "value": "active"}]}
{"compound": "CC1(C)C(C=C(Cl)Cl)C1C(=O)OCc1cccc(Oc2ccccc2)c1", "note": "(stereo not drawn) [1R-trans-, permethrin]", "values": [{"measurement": "activity of stereoisomer", "setting": "[1]", "value": "active"}]}
{"compound": "curare", "values": [{"measurement": "dip frequency sensitivity", "setting": "[2]", "value": "approximately exponential"}, {"measurement": "effect on contractile response", "setting": "[2]", "value": "inhibitory based on concentration"}, {"measurement": "form of fitted dose-response curve of muscle contraction", "setting": "[2]", "value": "biphasic curve"}, {"measurement": "plateau region of biphasic curve versus stimulation frequency", "setting": "[2]", "value": "shrinks exponentially for increasing frequency"}]}
{"compound": "CC1(C)C(C=C(Cl)Cl)C1C(=O)OCc1cccc(Oc2ccccc2)c1", "note": "(stereo not drawn) [cis-permethrin]", "values": [{"measurement": "toxicity relative to trans isomers", "setting": "[1]", "value": "about ten times more toxic"}]}
{"compound": "O=c1cc[nH]c(=O)[nH]1", "note": "[uracil]", "values": [{"measurement": "effect on toxicity of Tegafur", "setting": "colon cancer", "value": "enhances the toxicity of Tegafur"}]}
